Results taken from patent US11464770B2, “Anticancer pharmaceutical composition” (NATIONAL CANCER CENTER, priority 2016, dated 2022).
Read-outs that look alike come from different tables or passages of the source.

Legend:
[1] = tested on: pancreatic cancer cell lines (e.g. MIA PaCa-2); experiment: Cell based assay, cell viability (CellTiter-Glo), pancreatic cancer cell lines; conditions: Homo sapiens
Outline: (§1)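 Cells were trypsinized, seeded, and left 24 h before compound was added at 0 to 2 μM final. After a further 72 h of culture, viability was read by ATP-based luminescence.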

[2] = tested on: blood cancer cell lines (e.g. HL-60, Jurkat, Raji, Ramos, Daudi, MOLT-4); experiment: Cell based assay, cell viability (CellTiter-Glo), blood cancer cell lines; conditions: Homo sapiens
Outline: as §1

[3] = pancreatic cancer cell line AsPC-1, 72 hours, read-out: IC50, AsPC-1
[4] = pancreatic cancer cell line BxPC-3, 72 hours, read-out: IC50, BxPC-3
[5] = pancreatic cancer cell line CFPAC-1, 72 hours, read-out: IC50, CFPAC-1
[6] = pancreatic cancer cell line Capan-1, 72 hours, read-out: IC50, Capan-1
[7] = pancreatic cancer cell line Capan-2, 72 hours, read-out: IC50, Capan-2
[8] = pancreatic cancer cell line MIA PaCa-2, 72 hours, read-out: IC50, MIA PaCa-2
[9] = pancreatic cancer cell line PANC-1, 72 hours, read-out: IC50, PANC-1
[10] = MV4-11, blood cancer cell line MV-4-11, 72 hours, read-out: IC50, MV-4-11
[11] = blood cancer cell line Daudi, 72 hours, read-out: IC50, Daudi
[12] = blood cancer cell line HL-60, 72 hours, read-out: IC50, HL-60
[13] = blood cancer cell line Jurkat, 72 hours, read-out: IC50, Jurkat
[14] = blood cancer cell line MOLT-4, 72 hours, read-out: IC50, MOLT-4
[15] = blood cancer cell line Raji, 72 hours, read-out: IC50, Raji
[16] = blood cancer cell line Ramos (RA 1), 72 hours, read-out: IC50, Ramos (RA 1)
[17] = blood cancer cell line U-937, 72 hours, read-out: IC50, U-937

In the case of `CC(=O)c1c([S+]([O-])Cc2cc(Cl)ccc2Cl)[nH]c2c(Br)ccc(Cl)c2c1=O` (stereo not drawn) [Compound 44, 3-acetyl-8-bromo-5-chloro-2-((2,5-dichlorobenzyl)sulfinyl)quinolin-4(1H)-one], the IC50 [1, 3] is reported as > 2000 nM, the IC50 [1, 4] is reported as > 2000 nM and the IC50 [1, 5] is reported as > 10000 nM. For the same molecule, the IC50 [1, 6] was > 2000 nM, the IC50 [1, 7] was > 2000 nM and the IC50 [1, 8] was 1230 nM. The IC50 [1, 9] was > 2000 nM, the IC50 [2, 10] was 1980 nM and the IC50 [2, 11] was 1800 nM. The IC50 [2, 12] was 1730 nM, the IC50 [2, 13] was 1130 nM and the IC50 [2, 14] was 1470 nM. For the same molecule, the IC50 [2, 15] was 1160 nM, the IC50 [2, 16] was 1930 nM and the IC50 [2, 17] was > 2000 nM.
`CC(=O)c1c([S+]([O-])Cc2cc(F)cc(F)c2)[nH]c2c(Br)ccc(Cl)c2c1=O` (stereo not drawn) [Compound 46, 3-acetyl-8-bromo-5-chloro-2-((3,5-difluorobenzyl)sulfinyl)quinolin-4(1H)-one] was tested, and the IC50 [1, 3] was > 2000 nM, the IC50 [1, 4] was > 2000 nM and the IC50 [1, 5] was > 10000 nM. For the same molecule, the IC50 [1, 6] was > 2000 nM, the IC50 [1, 7] was > 2000 nM and the IC50 [1, 8] was 1570 nM. For the same molecule, the IC50 [1, 9] was > 2000 nM, the IC50 [2, 10] was > 2000 nM and the IC50 [2, 11] was > 2000 nM. For the same molecule, the IC50 [2, 12] was > 2000 nM, the IC50 [2, 13] was > 2000 nM and the IC50 [2, 14] was > 2000 nM. For the same molecule, the IC50 [2, 15] was > 2000 nM, the IC50 [2, 16] was > 2000 nM and the IC50 [2, 17] was > 2000 nM.
For `Cc1cc(C[S+]([O-])c2[nH]c3c(Cl)ccc(Cl)c3c(=O)c2C(=O)C(C)C)no1` (stereo not drawn) [Compound 86, 5,8-dichloro-3-isobutyryl-2-(((5-methylisoxazol-3-yl)methyl)sulfinyl)quinolin-4(1H)-one], the IC50 [1, 3] was 1280 nM, the IC50 [1, 4] was > 2000 nM and the IC50 [1, 5] was > 10000 nM. The IC50 [1, 6] was 1260 nM, the IC50 [1, 7] was > 2000 nM and the IC50 [1, 8] was 640 nM. The IC50 [1, 9] was > 2000 nM, the IC50 [2, 10] was 710 nM and the IC50 [2, 11] was 650 nM. For the same molecule, the IC50 [2, 12] was 1380 nM, the IC50 [2, 13] was 550 nM and the IC50 [2, 14] was 1010 nM. It also gave an IC50 [2, 15] of 820 nM, an IC50 [2, 16] of 460 nM and an IC50 [2, 17] of 1230 nM.
`CC(=O)c1c([S+]([O-])Cc2cc(C)on2)[nH]c2c(Br)ccc(Cl)c2c1=O` (stereo not drawn) [Compound 51, 3-acetyl-8-bromo-5-chloro-2-(((5-methylisoxazol-3-yl)methyl)sulfinyl)quinolin-4(1H)-one] was tested, and the IC50 [1, 3] was > 2000 nM, the IC50 [1, 4] was > 2000 nM and the IC50 [1, 5] was > 10000 nM. The IC50 [1, 6] was > 2000 nM, the IC50 [1, 7] was > 2000 nM and the IC50 [1, 8] was 760 nM. The IC50 [1, 9] was > 2000 nM, the IC50 [2, 10] was 680 nM and the IC50 [2, 11] was 1660 nM. For the same molecule, the IC50 [2, 12] was 950 nM, the IC50 [2, 13] was 850 nM and the IC50 [2, 14] was 1440 nM. For the same molecule, the IC50 [2, 15] was 760 nM, the IC50 [2, 16] was 1070 nM and the IC50 [2, 17] was 630 nM.
`CC(=O)c1c(S(=O)(=O)Cc2ccccc2)[nH]c2c(Br)ccc(Cl)c2c1=O` [Compound 34, 3-acetyl-2-(benzylsulfonyl)-8-bromo-5-chloroquinolin-4(1H)-one] was tested, and the IC50 [1, 3] was > 2000 nM, the IC50 [1, 4] was > 2000 nM and the IC50 [1, 5] was > 10000 nM. For the same molecule, the IC50 [1, 6] was > 2000 nM, the IC50 [1, 7] was > 2000 nM and the IC50 [1, 8] was 1990 nM. The IC50 [1, 9] was > 2000 nM, the IC50 [2, 10] was > 2000 nM and the IC50 [2, 11] was > 2000 nM. The IC50 [2, 12] was > 2000 nM, the IC50 [2, 13] was > 2000 nM and the IC50 [2, 14] was > 2000 nM. For the same molecule, the IC50 [2, 15] was > 2000 nM, the IC50 [2, 16] was > 2000 nM and the IC50 [2, 17] was > 2000 nM.
In the case of `Cc1cc(C[S+]([O-])c2[nH]c3c(Br)ccc(Cl)c3c(=O)c2C(=O)C(C)C)no1` (stereo not drawn) [Compound 95, 8-bromo-5-chloro-3-isobutyryl-2-(((5-methylisoxazol-3-yl)methyl)sulfinyl)quinolin-4(1H)-one], the IC50 [1, 3] is reported as 1060 nM, the IC50 [1, 4] is reported as > 2000 nM and the IC50 [1, 5] is reported as > 10000 nM. The IC50 [1, 6] was 1250 nM, the IC50 [1, 7] was > 2000 nM and the IC50 [1, 8] was 590 nM. The IC50 [1, 9] was > 2000 nM, the IC50 [2, 10] was 700 nM and the IC50 [2, 11] was 640 nM. For the same molecule, the IC50 [2, 12] was 980 nM, the IC50 [2, 13] was 290 nM and the IC50 [2, 14] was 1010 nM. It also gave an IC50 [2, 15] of 1000 nM, an IC50 [2, 16] of 520 nM and an IC50 [2, 17] of 1060 nM.
For `CC(=O)c1c([S+]([O-])Cc2ccc(C(F)(F)F)o2)[nH]c2c(Br)ccc(Cl)c2c1=O` (stereo not drawn) [Compound 72, 3-acetyl-8-bromo-5-chloro-2-(((5-(trifluoromethyl)furan-2-yl)methyl)sulfinyl)quinolin-4(1H)-one], the IC50 [1, 3] was 2010 nM, the IC50 [1, 4] was > 2000 nM and the IC50 [1, 5] was > 10000 nM. The IC50 [1, 6] was > 2000 nM, the IC50 [1, 7] was > 2000 nM and the IC50 [1, 8] was 1000 nM. The IC50 [1, 9] was > 2000 nM, the IC50 [2, 10] was 1120 nM and the IC50 [2, 11] was 1600 nM. For the same molecule, the IC50 [2, 12] was 1300 nM, the IC50 [2, 13] was 780 nM and the IC50 [2, 14] was 1050 nM. The IC50 [2, 15] was 940 nM, the IC50 [2, 16] was 1370 nM and the IC50 [2, 17] was 970 nM.
For `COc1cccc(C[S+]([O-])c2[nH]c3c(Br)ccc(Cl)c3c(=O)c2C(C)=O)c1` (stereo not drawn) [Compound 55, 3-acetyl-8-bromo-5-chloro-2-((3-methoxybenzyl)sulfinyl)quinolin-4(1H)-one], the IC50 [1, 3] was > 2000 nM, the IC50 [1, 4] was > 2000 nM and the IC50 [1, 5] was > 10000 nM. The IC50 [1, 6] was > 2000 nM, the IC50 [1, 7] was > 2000 nM and the IC50 [1, 8] was 1690 nM. The IC50 [1, 9] was > 2000 nM, the IC50 [2, 10] was > 2000 nM and the IC50 [2, 11] was > 2000 nM. The IC50 [2, 12] was > 2000 nM, the IC50 [2, 13] was 1300 nM and the IC50 [2, 14] was 1470 nM. For the same molecule, the IC50 [2, 15] was > 2000 nM, the IC50 [2, 16] was > 2000 nM and the IC50 [2, 17] was > 2000 nM.
With `CC(=O)c1c([S+]([O-])Cc2ccc(SC(F)(F)F)cc2)[nH]c2c(Br)ccc(Cl)c2c1=O` (stereo not drawn) [Compound 56, 3-acetyl-8-bromo-5-chloro-2-((4-((trifluoromethyl)thio)benzyl)sulfinyl)quinolin-4(1H)-one] the IC50 [1, 3] was > 2000 nM, the IC50 [1, 4] was > 2000 nM and the IC50 [1, 5] was > 10000 nM. The IC50 [1, 6] was > 2000 nM, the IC50 [1, 7] was > 2000 nM and the IC50 [1, 8] was 1370 nM. The IC50 [1, 9] was > 2000 nM, the IC50 [2, 10] was 1500 nM and the IC50 [2, 11] was 1250 nM. It also gave an IC50 [2, 12] of 1950 nM, an IC50 [2, 13] of 1060 nM and an IC50 [2, 14] of 1660 nM. It also gave an IC50 [2, 15] of 1120 nM, an IC50 [2, 16] of 1860 nM and an IC50 [2, 17] of 1750 nM.
